Assay results taken from US10596296B2, “Heparan sulphates” (Agency for Science, Technology and Research, priority 2014, dated 2020).

Tested on: chondrogenic differentiation of hMSCs
Experiment: qPCR of day 3 chondrogenic micromass pellets (Example 1)
Format: cell-based, human
Details: 3-day old pellets; SB431542 10 μM vs DMSO
Method: Chondrogenic differentiation was carried out using a modified micromass culture system as described by Zhang et al. (32). Briefly, passage 4 hMSCs were harvested and resuspended in chemically defined chondrogenic media (PT-3003, Lonza) at 2×10^7 cells/ml. Droplets of 12.5 μl were then seeded into the middle of each well in a 24-well plate and left to adhere at 37° C. for 2 h, after which, 500 μl of chondrogenic media supplemented with either 10 ng/ml of TGF-β1 (100-21C, PeproTech) alone (Media) or TGF-β1 with 10 μg/ml of heparin (Sigma-Aldrich) (Media+Hep) was added to each well. The cell droplets coalesced into spherical masses after 24 h and the micromasses harvested on day 3. Human MSCs were cultured in 6-well plates in basal media for 24 h at a density of 10,000 cells/cm^2. TGF-β1 treatments were then prepared at either 1 ng/ml or 5 ng/ml alone or in the presence of either 10 μg/ml or 40 μg/ml of full length heparin, or 1 ng/ml of TGF-β1 with 10 μg/ml size-fractionated or selectively desulfated heparin, HS^PM, HS16+ or HS16−, and incubated at room temperature for 10 min before being added to the cells. Latent TGF-β1 (LTGF-β1) treatments were similarly prepared at 3.3 ng/ml alone or with 10 μg/ml of the various GAGs described above. For inhibitor studies, the cells were pre-treated for 30 min with 10 μM SB431542 (Sigma-Aldrich) or DMSO before treatment with TGF-β1. The cells were then subjected to the various TGF-β1 treatments for 1, 6 or 24 h and lysed in 2× Laemmli buffer, before being resolved on a 4-12% SDS-PAGE gel. Samples were then immunoblotted with antibodies against SMAD2/3 (#3102, Cell Signaling), phosphorylated SMAD2 (pSMAD2, #3108, Cell Signaling), phosphorylated SMAD3 (pSMAD3, #9520, Cell Signaling) and actin (MAB1501R, Millipore). Densitometry was carried out using Quantity One software (version 4.6.6, Bio-Rad). Total RNA was isolated from chondrogenic micromass pellets using TRIZOL reagent (Invitrogen, Life Technologies) according to the manufacturer's protocol. Reverse transcription was carried out on 1 μg RNA using the SuperScript® VILO™ cDNA Synthesis Kit (Invitrogen, Life Technologies) following the manufacturer's instructions, with the incubation at 42° C. being carried out for 2 h instead of 1 h. Each qPCR contained 40 ng cDNA, 1 μl TaqMan® primer-probe mix per gene, and 10 μl Taqman® Fast Universal PCR Master Mix (Applied Biosystems, Life Technologies) in a final volume of 20 μl. Thermal cycling conditions were 95° C. for 20 s, followed by 45 cycles of 95° C. for 3 s and 60° C. for 30 s. Each qPCR was run in duplicate and gene expression was normalized to HPRT1 expression to obtain the ΔCt value. […] Relative expression levels for each primer set were expressed as fold changes by the 2^−ΔΔCt method (36). […]

For `NC(=O)c1ccc(-c2nc(-c3ccc4c(c3)OCO4)c(-c3ccccn3)[nH]2)cc1` [SB431542], the COMP gene expression was “reduction” and the SOX9 gene expression was “reduction”.
